Data taken from US9511073B2, “Aromatic amides and uses thereof” (TAXIS Pharmaceuticals, Inc., priority 2011, dated 2016).
≈ marks a conversion by molar mass, not a printed value.

System: Staphylococcus aureus (Isolate ID ATCC 29213)
Test: Bacterial assay: MIC by broth microdilution or agar dilution (CLSI), S. aureus ATCC 29213
Type: cell-based
Conditions: Staphylococcus aureus, ATCC29213, read-out: S. aureus MIC (μg/mL) Activity Range, S. aureus (ATCC29213)
Method in brief: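 Activity is binned (A ≤0.25 μg/mL; B >0.25–1.0; C >1.0–16; D >16 μg/mL) from MICs determined per CLSI by broth microdilution or agar dilution, on S. aureus ATCC 29213 plus an FtsZ-G196A mutant strain.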

| SMILES | MIC |
| --- | --- |
| NC(=O)c1c(F)ccc(OC(COC(=O)CCC(=O)O)c2nc(-c3ccc(F)cc3F)c(Br)o2)c1F (centres unmarked) [Compound 263, 4-(2-(5-bromo-4-(2,4-difluorophenyl)oxazol-2-yl)-2-(3 carbamoyl-2,4-difluorophenoxy)ethoxy)-4-oxobutanoic acid] | 1 to 16 µg/mL (≈ 1.74 to 27.8 µM) |
| Cc1ccc(-c2csc(C(CO)Oc3ccc(F)c(C(N)=O)c3F)n2)cn1 (centres unmarked) [Compound 264, 2,6-difluoro-3-(2-hydroxy-1-(4-(6-methylpyridin-3-yl)thiazol-2-yl)ethoxy)benzamide] | > 16 µg/mL |
| NC(=O)c1c(F)ccc(O[C@H](COCCO)c2nc(-c3ccc(F)cc3F)c(Br)o2)c1F [Compound 265B, (R)-3-(1-(5-bromo-4-(2,4-difluorophenyl)oxazol-2-yl)-2-(2-hydroxyethoxy)ethoxy)-2,6-difluorobenzamide] | 1 to 16 µg/mL (≈ 1.93 to 30.8 µM) |
| NC(=O)c1c(F)ccc(O[C@H](CO)c2nc3cc(Cl)cnc3s2)c1F [Compound 266B, (R)-3-(1-(6-chlorothiazolo[5,4-b]pyridin-2-yl)-2-hydroxyethoxy)-2,6-difluorobenzamide] | 1 to 16 µg/mL (≈ 2.59 to 41.5 µM) |
| NC(=O)c1c(F)ccc(OC(CO)c2scc(-c3ccc(Cl)cc3)[n+]2[O-])c1F (centres unmarked) [Compound 267, 2-(1-(3-carbamoyl-2,4-difluorophenoxy)-2-hydroxyethyl)-4-(4-chlorophenyl)thiazole 3-oxide] | > 16 µg/mL |
| COc1ccc(-c2coc([C@H](C)Oc3ccc(F)c(C(N)=O)c3F)n2)cc1 [Compound 268A, (S)-2,6-difluoro-3-(1-(4-(4-methoxyphenyl)oxazol-2-yl)ethoxy)benzamide] | > 16 µg/mL |
| NC(=O)c1c(F)ccc(OC(CO)c2nc(-c3ccc(C(F)(F)F)cc3)c(C3CC3)o2)c1F (centres unmarked) [Compound 269, 3-(1-(5-cyclopropyl-4-(4-(trifluoromethyl)phenyl)oxazol-2-yl)-2-hydroxyethoxy)-2,6-difluorobenzamide] | 1 to 16 µg/mL (≈ 2.14 to 34.2 µM) |
| CSc1ccc(OC(CO)c2nc(-c3ccc(C(F)(F)F)cc3)c(SC)o2)c(F)c1C(N)=O (centres unmarked) [Compound 270, 2-fluoro-3-(2-hydroxy-1-(5-(methylthio)-4-(4-(trifluoromethyl)phenyl)oxazol-2-yl)ethoxy)-6-(methylthio)benzamide] | > 16 µg/mL |
| CSc1oc(C(CO)Oc2ccc(F)c(C(N)=O)c2F)nc1-c1ccc(C(F)(F)F)cc1 (centres unmarked) [Compound 271, 2,6-difluoro-3-(2-hydroxy-1-(5-(methylthio)-4-(4-(trifluoromethyl)phenyl)oxazol-2-yl)ethoxy)benzamide] | 0.25 to 1 µg/mL (≈ 0.527 to 2.11 µM) |
| NC(=O)c1c(F)ccc(O[C@H](CO)c2nc(-c3ccc(C(F)(F)F)cc3)co2)c1F [Compound 272B, (R)-2,6-difluoro-3-(2-hydroxy-1-(4-(4-(trifluoromethyl)phenyl)oxazol-2-yl)ethoxy)benzamide] | 1 to 16 µg/mL (≈ 2.33 to 37.4 µM) |
| NC(=O)c1c(F)ccc(O[C@H](CO)c2nc(-c3ccc(OC(F)F)cc3)c(Br)o2)c1F [Compound 273B, (R)-3-(1-(5-bromo-4-(4-(difluoromethoxy)phenyl)oxazol-2-yl)-2-hydroxyethoxy)-2,6-difluorobenzamide] | < 0.25 µg/mL |
| NC(=O)c1c(F)ccc(O[C@H](CO)c2nc(-c3ccc(OC(F)F)cc3)co2)c1F [Compound 274B, (R)-3-(1-(4-(4-(difluoromethoxy)phenyl)oxazol-2-yl)-2-hydroxyethoxy)-2,6-difluorobenzamide] | 1 to 16 µg/mL (≈ 2.35 to 37.5 µM) |
| CCc1nc([C@@H](CO)Oc2ccc(F)c(C(N)=O)c2F)oc1Br [Compound 275B, (R)-3-(1-(5-bromo-4-ethyloxazol-2-yl)-2-hydroxyethoxy)-2,6-difluorobenzamide] | > 16 µg/mL |
| NC(=O)c1c(F)ccc(OC(CNC(=O)OCc2ccccc2)c2nc(-c3ccc(C(F)(F)F)cc3)co2)c1F (centres unmarked) [Compound 276, benzyl (2-(3-carbamoyl-2,4-difluorophenoxy)-2-(4-(4-(trifluoromethyl)phenyl)oxazol-2-yl)ethyl)carbamate] | 1 to 16 µg/mL (≈ 1.78 to 28.5 µM) |
| CCCCc1oc(C(CO)Oc2ccc(F)c(C(N)=O)c2F)nc1-c1ccc(C(F)(F)F)cc1 (centres unmarked) [Compound 277, 3-(1-(5-butyl-4-(4-(trifluoromethyl)phenyl)oxazol-2-yl)-2-hydroxyethoxy)-2,6-difluorobenzamide] | 1 to 16 µg/mL (≈ 2.06 to 33 µM) |
| NC(=O)c1c(F)ccc(O[C@H](CO)c2nc(-c3ccc(F)cc3)co2)c1F [Compound 278B, (R)-2,6-difluoro-3-(1-(4-(4-fluorophenyl)oxazol-2-yl)-2-hydroxyethoxy)benzamide] | > 16 µg/mL |
| NC(=O)c1c(F)ccc(O[C@H](CO)c2nc(-c3ccc(F)cc3)c(Br)o2)c1F [Compound 279B, (R)-3-(1-(5-bromo-4-(4-fluorophenyl)oxazol-2-yl)-2-hydroxyethoxy)-2,6-difluorobenzamide] | 0.25 to 1 µg/mL (≈ 0.547 to 2.19 µM) |
| NC(=O)c1c(F)ccc(OC(CNC(=O)OCc2ccccc2)c2nc(-c3ccc(C(F)(F)F)cc3)c(Br)o2)c1F (centres unmarked) [Compound 280, benzyl (2-(5-bromo-4-(4-(trifluoromethyl)phenyl)oxazol-2-yl)-2-(3-carbamoyl-2,4-difluorophenoxy)ethyl)carbamate] | 0.25 to 1 µg/mL (≈ 0.39 to 1.56 µM) |
| NCC(Oc1ccc(F)c(C(N)=O)c1F)c1nc(-c2ccc(C(F)(F)F)cc2)co1 (centres unmarked) [Compound 281, 3-(2-amino-1-(4-(4-(trifluoromethyl)phenyl)oxazol-2-yl)ethoxy)-2,6-difluorobenzamide] | > 16 µg/mL |
| CC(=O)NCC(Oc1ccc(F)c(C(N)=O)c1F)c1nc(-c2ccc(C(F)(F)F)cc2)co1 (centres unmarked) [Compound 282, 3-(2-acetamido-1-(4-(4-(trifluoromethyl)phenyl)oxazol-2-yl)ethoxy)-2,6-difluorobenzamide] | > 16 µg/mL |
| CC(=O)NCC(Oc1ccc(F)c(C(N)=O)c1F)c1nc(-c2ccc(C(F)(F)F)cc2)c(Br)o1 (centres unmarked) [Compound 283, 3-(2-acetamido-1-(5-bromo-4-(4-(trifluoromethyl)phenyl)oxazol-2-yl)ethoxy)-2,6-difluorobenzamide] | 1 to 16 µg/mL (≈ 1.82 to 29.2 µM) |
| CS(=O)(=O)NCC(Oc1ccc(F)c(C(N)=O)c1F)c1nc(-c2ccc(C(F)(F)F)cc2)co1 (centres unmarked) [Compound 284, 2,6-difluoro-3-(2-(methylsulfonamido)-1-(4-(4-(trifluoromethyl)phenyl)oxazol-2-yl)ethoxy)benzamide] | > 16 µg/mL |
| CS(=O)(=O)NCC(Oc1ccc(F)c(C(N)=O)c1F)c1nc(-c2ccc(C(F)(F)F)cc2)c(Br)o1 (centres unmarked) [Compound 285, 3-(1-(5-bromo-4-(4-(trifluoromethyl)phenyl)oxazol-2-yl)-2-(methylsulfonamido)ethoxy)-2,6-difluorobenzamide] | 1 to 16 µg/mL (≈ 1.71 to 27.4 µM) |
| CCNC(=O)NCC(Oc1ccc(F)c(C(N)=O)c1F)c1nc(-c2ccc(C(F)(F)F)cc2)co1 (centres unmarked) [Compound 286, 3-(2-(3-ethylureido)-1-(4-(4-(trifluoromethyl)phenyl)oxazol-2-yl)ethoxy)-2,6-difluorobenzamide] | > 16 µg/mL |
| NCC(Oc1ccc(F)c(C(N)=O)c1F)c1nc(-c2ccc(C(F)(F)F)cc2)c(Br)o1 (centres unmarked) [Compound 290, 3-(2-amino-1-(5-bromo-4-(4-(trifluoromethyl)phenyl)oxazol-2-yl)ethoxy)-2,6-difluorobenzamide] | 1 to 16 µg/mL (≈ 1.98 to 31.6 µM) |
| CCNC(=O)NCC(Oc1ccc(F)c(C(N)=O)c1F)c1nc(-c2ccc(C(F)(F)F)cc2)c(Br)o1 (centres unmarked) [Compound 291, 3-(1-(5-bromo-4-(4-(trifluoromethyl)phenyl)oxazol-2-yl)-2-(3-ethylureido)ethoxy)-2,6-difluorobenzamide] | < 0.25 µg/mL |
